Columns and labels:
Assay type in all cases: cell-based
[1] = test system: p-p70S6K; assay: p-p70S6K protein expression by western blot in L6 muscle cells
Procedure: (§1) L6 myoblasts (ATCC, Manassas, Va., USA) were added to a 6-well plate with Dulbecco's modified Eagle's Media (DMEM; Hyclone) containing 10% fetal bovine serum (FBS; Hyclone, Logan, Utah, USA) at a concentration of 2×10^5 cells/mL. When the cell density reached about 80 to 85%, the medium in the wells was removed. […] Meanwhile, a group treated with 0.01% DMSO instead of the sample was used as a control group. This procedure was carried out for 6 days in two days to differentiate and then dissolved in NP-40 buffer solution (ELPIS-Biotech, Daejeon, Republic of Korea) containing proteinase inhibitor cocktail. The cells dissolved in the buffer solution were transferred to a 1.5-mL tube and centrifuged at 13,000 rpm for 10 minutes to take only a supernatant. The supernatant was quantified using Bradford (Bio-Rad Laboratories Inc., Hercules, Calif., USA). The quantified proteins were boiled for 5 minutes, separated by electrophoresis on 10% SDS-PAGE, and were transferred to the nitrocellulose membrane. A p-mTOR primary antibody (Cellular signaling technology, Beverly, Mass., USA) was diluted with 2.5% bovine serum albumin (BSA) at a ratio of 1:1000 and reacted with proteins transferred to the nitrocellulose membrane for 20 hours at room temperature. […]

[2] = test system: p-4EBP1; assay: p-4EBP1 protein expression by western blot in L6 muscle cells
Procedure: as §1

[3] = test system: MuRF-1; assay: MuRF-1 mRNA expression by RT-PCR in TNF-α-treated L6 muscle cells; settings: differentiated L6 muscle cells, 50 ng/mL TNF-α
Procedure: L6 myoblast (ATCC) was added to a 6-well plate at 2×10^5 cells/ml together with DMEM (Hyclone) containing 10% FBS (Hyclone). When the cell density reached about 80% to 85%, the medium in the wells was removed and myotube differentiation was induced by treating the cells with DMEM (Hyclone) containing 2% HS (Hyclone). The medium was replaced with fresh medium every two days and the differentiation was carried out for a total of 6 days. After differentiation, 0.1 μM and 1 μM of morusin prepared in Example 2-1 were respectively dissolved in DMEM (Hyclone) containing 50 ng/mL tumor necrosis factor alph (TNF-α; PeproTech, Rocky Hills, N.J., USA), followed by their treatment on the cells. After 6 hours, total RNA was isolated using TRIzol reagent (Invitrogen). The isolated total RNA was quantified using NanoDrop 1000 (Thermo Fisher Scientific Inc.). The quantified 16 μL of RNA was synthesized into cDNA using Reverse Transcriptase Premix (ELPIS-Biotech) and PCR machine (Gene Amp PCR System 2700: Applied Biosystems) at 42° C. for 55 minutes and at 70° C. for 15 minutes. The PCR was performed by repeating 30 cycles at 95° C. for 30 seconds, at 60° C. for 1 minute and at 72° C. for 1 minute with 4 μl of 16 μl cDNA, the following specific primers (Bioneer), and PCR premix (ELPIS-Biotech): […]

| Structure (SMILES) | expression of p-p70S6K protein ([1]; 1 μM and 5 μM) | expression of p-4EBP1 protein ([2]; 1 μM and 5 μM) | mRNA expression of MuRF-1 ([3]; concentration not given) | expression of p-p70S6K protein ([1]; 0.1 and 1 μM) | expression of p-4EBP1 protein ([2]; 0.1 and 1 μM) | mRNA expression of MuRF-1 ([3]; 0.1 μM and 1 μM, 6 hours) |
| --- | --- | --- | --- | --- | --- | --- |
| CC(C)=CCc1c(-c2ccc(O)cc2O)oc2c([C@H]3C=C(C)C[C@@H](c4ccc(O)cc4O)[C@@H]3C(=O)c3ccc(O)cc3O)c(O)cc(O)c2c1=O [Kuwanon G, 8-[(1S,5R,6S)-6-(2,4-Dihydroxybenzoyl)-5-(2,4-dihydroxyphenyl)-3-methyl-2-cyclohexen-1-yl]-2-(2,4-dihydroxyphenyl)-5,7-dihydroxy-3-(3-methyl-2-buten-1-yl)-4H-chromen-4-one] | increased | increased | decreased |  |  |  |
| CC(C)=CCc1c(-c2ccc(O)cc2O)oc2c3c(cc(O)c2c1=O)OC(C)(C)C=C3 [Morusin, 2-(2,4-Dihydroxyphenyl)-5-hydroxy-8,8-dimethyl-3-(3-methyl-2-buten-1-yl)-4H,8H-benzo[1,2-b:3,4-b′]dipyran-4-one] |  |  |  | increased | increased | decreased |

— patent publication US10576057B2, “Methods for treating muscle wasting and degeneration diseases” (NEWTREE CO., LTD., priority 2015, dated 2020)
